# Laboratory results reported in patent US11306078B2, “Piperidine CXCR7 receptor modulators” (IDORSIA PHARMACEUTICALS LTD., priority 2016, dated 2022).
# Molecular target: human chemokine receptor CXCR7 (Homo sapiens (Human), UniProt P25106)
# Test: Tango CXCR7-bla U2OS beta-arrestin recruitment assay (beta-lactamase reporter, FRET), antagonism of CXCL12/SDF1-α;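 also: compounds preincubated 15 min before CXCL12 addition, then 22 h at 37 °C, FRET emission ratio read with CCF4-AM substrate after 2 h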
# Assay type: cell-based
# Details: antagonistic effect on CXCR7; Tango CXCR7-bla U2OS cells, CXCL12/SDF1-α at its EC80
# Sequence of human chemokine receptor CXCR7 (P25106 whole entry): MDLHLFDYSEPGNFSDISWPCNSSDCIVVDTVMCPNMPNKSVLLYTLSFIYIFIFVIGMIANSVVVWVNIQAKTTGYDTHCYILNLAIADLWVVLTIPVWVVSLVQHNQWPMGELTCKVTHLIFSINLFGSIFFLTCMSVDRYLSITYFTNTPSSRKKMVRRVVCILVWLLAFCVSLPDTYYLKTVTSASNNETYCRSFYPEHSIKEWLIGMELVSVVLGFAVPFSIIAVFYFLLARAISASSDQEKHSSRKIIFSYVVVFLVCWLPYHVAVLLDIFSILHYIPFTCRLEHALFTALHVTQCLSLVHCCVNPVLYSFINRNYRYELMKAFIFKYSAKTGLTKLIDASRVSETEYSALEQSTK
row,Compound,IC50 [nM]
1,"O=C(N[C@@H]1CCN(C2CCCCC2)C[C@H]1C(=O)NC1CCCC1)c1cc(-c2ccc(F)cc2F)on1 (racemic) [Example 1.003, rac-(3R*,4R*)-1-Cyclohexyl-4-{[5-(2,4-difluoro-phenyl)-isoxazole-3-carbonyl]-amino}-piperidine-3-carboxylic acid cyclopentylamide]",564
2,"COCCNC(=O)[C@@H]1CN(C2CCCCC2)CC[C@H]1NC(=O)c1cc(-c2ccc(F)cc2F)on1 (racemic) [Example 1.006, rac-(3R*,4R*)-1-Cyclohexyl-4-{[5-(2,4-difluoro-phenyl)-isoxazole-3-carbonyl]-amino}-piperidine-3-carboxylic acid (2-methoxy-ethyl)-amide]",414
3,"NC(=O)CNC(=O)[C@@H]1CN(C2CCCCC2)CC[C@H]1NC(=O)c1cc(-c2ccc(F)cc2F)on1 (racemic) [Example 1.014, rac-(3R*,4R*)-1-Cyclohexyl-4-{[5-(2,4-difluoro-phenyl)-isoxazole-3-carbonyl]-amino}-piperidine-3-carboxylic acid carbamoylmethyl-amide]",289
4,"O=C(N[C@@H]1CCN(C2CCCCC2)C[C@H]1C(=O)N1CCOCC1)c1cc(-c2ccc(F)cc2F)on1 (racemic) [Example 1.016, rac-5-(2,4-Difluoro-phenyl)-isoxazole-3-carboxylic acid [(3R*,4R*)-1-cyclohexyl-3-(morpholine-4-carbonyl)-piperidin-4-yl]-amide]",275
5,"Cc1cc(CNC(=O)[C@@H]2CN(C3CCCCC3)CC[C@H]2NC(=O)c2cc(-c3ccc(F)cc3F)on2)no1 (racemic) [Example 1.022, rac-(3R*,4R*)-1-Cyclohexyl-4-{[5-(2,4-difluoro-phenyl)-isoxazole-3-carbonyl]-amino}-piperidine-3-carboxylic acid (5-methyl-isoxazol-3-ylmethyl)-amide]",198
6,"Cc1cc(CNC(=O)[C@@H]2CN(C3CCCCC3)CC[C@H]2NC(=O)c2cc(-c3ccc(F)cc3F)on2)on1 (racemic) [Example 1.029, rac-(3R*,4R*)-1-Cyclohexyl-4-{[5-(2,4-difluoro-phenyl)-isoxazole-3-carbonyl]-amino}-piperidine-3-carboxylic acid (3-methyl-isoxazol-5-ylmethyl)-amide]",315
7,"Cc1nc(CNC(=O)[C@@H]2CN(C3CCCCC3)CC[C@H]2NC(=O)c2cc(-c3ccc(F)cc3F)on2)cs1 (racemic) [Example 1.031, rac-(3R*,4R*)-1-Cyclohexyl-4-{[5-(2,4-difluoro-phenyl)-isoxazole-3-carbonyl]-amino}-piperidine-3-carboxylic acid (2-methyl-thiazol-4-ylmethyl)-amide]",855
8,"O=C(N[C@@H]1CCN(C2CCCCC2)C[C@H]1C(=O)NCc1ncccn1)c1cc(-c2ccc(F)cc2F)on1 (racemic) [Example 1.032, rac-(3R*,4R*)-1-Cyclohexyl-4-{[5-(2,4-difluoro-phenyl)-isoxazole-3-carbonyl]-amino}-piperidine-3-carboxylic acid (pyrimidin-2-ylmethyl)-amide]",154
9,"Cc1ncsc1CNC(=O)[C@@H]1CN(C2CCCCC2)CC[C@H]1NC(=O)c1cc(-c2ccc(F)cc2F)on1 (racemic) [Example 1.033, rac-(3R*,4R*)-1-Cyclohexyl-4-{[5-(2,4-difluoro-phenyl)-isoxazole-3-carbonyl]-amino}-piperidine-3-carboxylic acid (4-methyl-thiazol-5-ylmethyl)-amide]",591
10,"O=C(N[C@@H]1CCN(C2CCCCC2)C[C@H]1C(=O)NCc1ccncn1)c1cc(-c2ccc(F)cc2F)on1 (racemic) [Example 1.034, rac-(3R*,4R*)-1-Cyclohexyl-4-{[5-(2,4-difluoro-phenyl)-isoxazole-3-carbonyl]-amino}-piperidine-3-carboxylic acid (pyrimidin-4-ylmethyl)-amide]",772
11,"O=C(N[C@@H]1CCN(C2CCCCC2)C[C@H]1C(=O)NCc1cnco1)c1cc(-c2ccc(F)cc2F)on1 (racemic) [Example 1.035, rac-(3R*,4R*)-1-Cyclohexyl-4-{[5-(2,4-difluoro-phenyl)-isoxazole-3-carbonyl]-amino}-piperidine-3-carboxylic acid (oxazol-5-ylmethyl)-amide]",520
12,"O=C(N[C@@H]1CCN(C2CCCCC2)C[C@H]1C(=O)N1CC(F)C1)c1cc(-c2ccc(F)cc2F)on1 (racemic) [Example 1.036, rac-5-(2,4-Difluoro-phenyl)-isoxazole-3-carboxylic acid [(3R*,4R*)-1-cyclohexyl-3-(3-fluoro-azetidine-1-carbonyl)-piperidin-4-yl]-amide]",693
13,"O=C(N[C@@H]1CCN(C2CCCCC2)C[C@H]1C(=O)NCc1cnccn1)c1cc(-c2ccc(F)cc2F)on1 (racemic) [Example 1.037, rac-(3R*,4R*)-1-Cyclohexyl-4-{[5-(2,4-difluoro-phenyl)-isoxazole-3-carbonyl]-amino}-piperidine-3-carboxylic acid (pyrazin-2-ylmethyl)-amide]",295
14,"O=C(N[C@@H]1CCN(C2CCCCC2)C[C@H]1C(=O)NCCOC(F)(F)F)c1cc(-c2ccc(F)cc2F)on1 (racemic) [Example 1.038, rac-(3R*,4R*)-1-Cyclohexyl-4-{[5-(2,4-difluoro-phenyl)-isoxazole-3-carbonyl]-amino}-piperidine-3-carboxylic acid (2-trifluoromethoxy-ethyl)-amide]",490

# Other lines, results leading:
row,IC50 [nM],Compound
1,198,"CN(CCO)C(=O)[C@@H]1CN(C2CCCCC2)CC[C@H]1NC(=O)c1cc(-c2ccc(F)cc2F)on1 (racemic) [Example 1.005, rac-(3R*,4R*)-1-Cyclohexyl-4-{[5-(2,4-difluoro-phenyl)-isoxazole-3-carbonyl]-amino}-piperidine-3-carboxylic acid (2-hydroxy-ethyl)-methyl-amide]"
2,780,"CC(C)CNC(=O)[C@@H]1CN(C2CCCCC2)CC[C@H]1NC(=O)c1cc(-c2ccc(F)cc2F)on1 (racemic) [Example 1.007, rac-(3R*,4R*)-1-Cyclohexyl-4-{[5-(2,4-difluoro-phenyl)-isoxazole-3-carbonyl]-amino}-piperidine-3-carboxylic acid isobutyl-amide]"
3,394,"CC(C)NC(=O)[C@@H]1CN(C2CCCCC2)CC[C@H]1NC(=O)c1cc(-c2ccc(F)cc2F)on1 (racemic) [Example 1.008, rac-(3R*,4R*)-1-Cyclohexyl-4-{[5-(2,4-difluoro-phenyl)-isoxazole-3-carbonyl]-amino}-piperidine-3-carboxylic acid isopropylamide]"
4,282,"O=C(N[C@@H]1CCN(C2CCCCC2)C[C@H]1C(=O)NCCF)c1cc(-c2ccc(F)cc2F)on1 (racemic) [Example 1.011, rac-(3R*,4R*)-1-Cyclohexyl-4-{[5-(2,4-difluoro-phenyl)-isoxazole-3-carbonyl]-amino}-piperidine-3-carboxylic acid (2-fluoro-ethyl)-amide]"
5,58,"CCNC(=O)[C@@H]1CN(C2CCCCC2)CC[C@H]1NC(=O)c1cc(-c2ccc(F)cc2F)on1 (racemic) [Example 1.012, rac-(3R*,4R*)-1-Cyclohexyl-4-{[5-(2,4-difluoro-phenyl)-isoxazole-3-carbonyl]-amino}-piperidine-3-carboxylic acid ethylamide]"
6,238,"CN(C(=O)[C@@H]1CN(C2CCCCC2)CC[C@H]1NC(=O)c1cc(-c2ccc(F)cc2F)on1)C1CC1 (racemic) [Example 1.013, rac-(3R*,4R*)-1-Cyclohexyl-4-{[5-(2,4-difluoro-phenyl)-isoxazole-3-carbonyl]-amino}-piperidine-3-carboxylic acid cyclopropyl-methyl-amide]"
7,489,"CC(C)N(C)C(=O)[C@@H]1CN(C2CCCCC2)CC[C@H]1NC(=O)c1cc(-c2ccc(F)cc2F)on1 (racemic) [Example 1.017, rac-(3R*,4R*)-1-Cyclohexyl-4-{[5-(2,4-difluoro-phenyl)-isoxazole-3-carbonyl]-amino}-piperidine-3-carboxylic acid isopropyl-methyl-amide]"
8,317,"CN(C)CCN(C)C(=O)[C@@H]1CN(C2CCCCC2)CC[C@H]1NC(=O)c1cc(-c2ccc(F)cc2F)on1 (racemic) [Example 1.018, rac-(3R*,4R*)-1-Cyclohexyl-4-{[5-(2,4-difluoro-phenyl)-isoxazole-3-carbonyl]-amino}-piperidine-3-carboxylic acid (2-dimethylamino-ethyl)-methyl-amide]"
9,145,"CCOCCN(C)C(=O)[C@@H]1CN(C2CCCCC2)CC[C@H]1NC(=O)c1cc(-c2ccc(F)cc2F)on1 (racemic) [Example 1.019, rac-(3R*,4R*)-1-Cyclohexyl-4-{[5-(2,4-difluoro-phenyl)-isoxazole-3-carbonyl]-amino}-piperidine-3-carboxylic acid (2-ethoxy-ethyl)-methyl-amide]"
10,743,"CN(C)CCNC(=O)[C@@H]1CN(C2CCCCC2)CC[C@H]1NC(=O)c1cc(-c2ccc(F)cc2F)on1 (racemic) [Example 1.023, rac-(3R*,4R*)-1-Cyclohexyl-4-{[5-(2,4-difluoro-phenyl)-isoxazole-3-carbonyl]-amino}-piperidine-3-carboxylic acid (2-dimethylamino-ethyl)-amide]"
11,627,"O=C(N[C@@H]1CCN(C2CCCCC2)C[C@H]1C(=O)NCC(F)F)c1cc(-c2ccc(F)cc2F)on1 (racemic) [Example 1.026, rac-(3R*,4R*)-1-Cyclohexyl-4-{[5-(2,4-difluoro-phenyl)-isoxazole-3-carbonyl]-amino}-piperidine-3-carboxylic acid (2,2-difluoro-ethyl)-amide]"
12,117,"COCCCN(C)C(=O)[C@@H]1CN(C2CCCCC2)CC[C@H]1NC(=O)c1cc(-c2ccc(F)cc2F)on1 (racemic) [Example 1.027, rac-(3R*,4R*)-1-Cyclohexyl-4-{[5-(2,4-difluoro-phenyl)-isoxazole-3-carbonyl]-amino}-piperidine-3-carboxylic acid (3-methoxy-propyl)-methyl-amide]"
13,492,"CN(CC1COC1)C(=O)[C@@H]1CN(C2CCCCC2)CC[C@H]1NC(=O)c1cc(-c2ccc(F)cc2F)on1 (racemic) [Example 1.039, rac-(3R*,4R*)-1-Cyclohexyl-4-{[5-(2,4-difluoro-phenyl)-isoxazole-3-carbonyl]-amino}-piperidine-3-carboxylic acid methyl-oxetan-3-ylmethyl-amide]"
